Measurements published in US9394544B2, “Ameliorating oxidative stress in neurodegenerative disease via Nox1 targeting” (University of Central Florida Research Foundation, Inc., priority 2013, dated 2016).

Key:
α-synuclein = test: α-Synuclein aggregation (immunocytochemistry, PK resistance, A11) in N27 cells exposed to PQ; type: cell-based, rat; conditions: for increase in aggregated α-synuclein-positive cells vs control: 24 h
Procedure: The same Nox1 shRNA used for AAV2 construct was cloned into a pLVX-shRNA2 vector containing zsGreen1 (Clontech). To make lentiviral particles, ViraPower Lentiviral Expression System (Invitrogen) was used. […]. For 6-well plates, 8 μg of each plasmid was mixed in a 1:1:1:1 ratio in 100 μl of Xfect polymer buffer and then added to the cells. After 48 h, the viral-containing medium was harvested and centrifuged briefly at 500×g for 10 min to remove cellular debris and supernatant recovered and kept at −80° C. until used.
After each respective treatment, cells were fixed in 4% paraformaldehyde (PFA) for 20 min and permeabilized with 0.1% Triton X-100 in PBS for 10 min. Blocking was performed by incubation with 20% goat or donkey serum in PBS containing 0.1% Tween 20 for 90 min at room temperature. The cells were then incubated for 120 min at room temperature with the following primary antibodies, according to the aim of the experiment: goat anti-Nox1 (1:50), rabbit anti-TH (1:10,000), mouse anti-Flag (1:150), mouse anti-α-synuclein (1:150), and rabbit anti-A11 (2.5 μg/ml). After washing, cells were incubated for 120 min with the appropriate secondary antibodies conjugated to Alexa Fluor 647 or Alexa Fluor 488 (1:1000). For nuclear visualization coverslips were incubated with 2 μM Hoechst for 10 min. For quantification of Flag^+ and α-synuclein^+ cells, >30 different fields per coverslip were analyzed on a Nikon inverted fluorescent microscope under a 20× and 40× magnification.
Immunocytochemistry for proteinase K (PK)-resistant α-synuclein was performed based on a methodology reported previously (Neumann et al., 2002), with some modifications. Briefly, fixed cells were permeabilized with 0.1% Tween 20 and then digested for 30 min at 37° C. with PK (10 μg/ml). PK was inactivated with 3 M guanidine thiocyanate in 10 mM Tris-HCl solution for 10 min. Between each step, cells were washed gently three times with PBS. Cells were then incubated for 60 min with blocking solution containing 10% donkey serum followed by an overnight incubation with mouse anti-α-synuclein antibody (1:150). The day after, cells were incubated with secondary antibodies conjugated to Alexa Fluor 647 donkey anti-mouse for 60 min and with 2 μM Hoechst solution for 10 min. For PK-resistant α-synuclein evaluation in rat SN, 40 μm sections from 4% PFA fixed tissues were washed twice in distillated water with 0.1% Tween 20, and then incubated for 30 min in TBST. The tissues were incubated for 90 min at 55° C. with 50 μg/ml PK in TBST and further washed three times in TBS. PK was denatured by incubating the tissues in a 3 M guanidine thiocyanate in 10 mM Tris-HCl solution for 10 min. […]

SN dopaminergic neurons = test: Stereological count of TH-positive dopaminergic neurons in the SN, PQ rat model; type: in vivo; conditions: vector+PQ group, or Nox1 shRNA+PQ group
Procedure: The experiments were performed on rats, in accordance with the National Institutes for Health Guide for the Care and Use of Laboratory Animals. All procedures were approved by the local Animal Care and Use Committee. Male Wistar rats (8-10 weeks; Charles River) were maintained in a temperature/humidity-controlled environment under a 12 h light/dark cycle with ad libitum access to food and water. As depicted in FIG. 13A, each animal received four intraperitoneal injections, separated by 1 d, of either vehicle (saline) or PQ (10 mg/kg body weight; b.w.), according to a previously published dose (Manning-Bog et al., 2002; Harraz et al., 2008; Cristovao et al., 2009). All animals were weighed at day 1 and 12. In the studies using the paradigm depicted in FIG. 13A, 4 weeks before starting PQ intraperitoneal injection, animals were stereotaxically injected with various viral constructs at the right SN using the following coordinates: mediolateral, +2.0; anteroposterior, −5.3; dorsoventral, −6.8. […]
Following perfusion with saline and 4% PFA in PBS, brains were removed, and forebrain and midbrain blocks were immersion fixed in 4% PFA and cryoprotected in sucrose. […] The numbers of TH-immunoreactive cells in the SN were counted using an optical fractionator. […]

SMILES: C[n+]1ccc(-c2cc[n+](C)cc2)cc1 [PQ, paraquat]
- A11 immunoreactivity vs controls (α-synuclein): high A11 immunoreactivity
- PK-resistant α-synuclein immunoreactivity (α-synuclein): higher PK-resistant α-synuclein immunoreactivity
- increase in aggregated α-synuclein-positive cells vs control (α-synuclein; 800 μM): 62%
- increase in aggregated α-synuclein-positive cells vs control (α-synuclein; 1000 μM): 64%
- dopaminergic neuronal loss (stereological count of TH-positive neurons) (SN dopaminergic neurons): 37%
